Assay results from ChEMBL document CHEMBL5335807, “Rational design, synthesis and biological evaluation of novel HIV-1 protease inhibitors containing 2-phenylacetamide derivatives as P2 ligands with potent activity against DRV-Resistant HIV-1 variants” (Bioorg Med Chem Lett, 2024).

Columns and labels:
[1] = molecular target: Human immunodeficiency virus type 1 protease (Human immunodeficiency virus 1, UniProt Q72874); test: Inhibition of HIV-1 protease by fluorescence resonance energy transfer analysis
[2] = system: Human immunodeficiency virus 1; test: Antiviral activity against HIV-1 NL4-3 assessed as inhibition of viral growth; assay type: functional, organism-based; conditions: Human immunodeficiency virus 1, NL4-3
[3] = system: Human immunodeficiency virus 1; test: Antiviral activity against DRV-resistant HIV-1 assessed as inhibition of viral growth by single-round infection assay; assay type: functional, organism-based; conditions: Human immunodeficiency virus 1, DRV
[4] = Resistance index, ratio of EC50 for antiviral activity against DRV-resistant HIV-1 to EC50 for antiviral activity against wild type HIV-1 NL4-3; assay type: functional, Human immunodeficiency virus 1

Row | Structure (SMILES) | IC50 [1] [nM] | further results
1 | CSc1ccc(S(=O)(=O)N(CC(C)C)C[C@@H](O)[C@H](Cc2ccccc2)NC(=O)Cc2ccc(O)c(O)c2)cc1 | 2.29 | –
2 | COc1ccc(CC(=O)N[C@@H](Cc2ccccc2)[C@H](O)CN(CC(C)C)S(=O)(=O)c2ccc(N)cc2)cc1 | 377 | –
3 | COc1ccc(S(=O)(=O)N(CC(C)C)C[C@@H](O)[C@H](Cc2ccccc2)NC(=O)Cc2cccc(OC)c2)cc1 | 6.95 | –
4 | COc1ccc(S(=O)(=O)N(CC(C)C)C[C@@H](O)[C@H](Cc2ccccc2)NC(=O)Cc2ccc(O)c(O)c2)cc1 | 0.54 | EC50 [2]: 1860 nM; EC50 [3]: 23200 nM; Ratio EC50 [4]: 12.5
5 | COc1ccc(CC(=O)N[C@@H](Cc2ccccc2)[C@H](O)CN(CC(C)C)S(=O)(=O)c2ccc(SC)cc2)cc1OC | 171 | –
6 | COc1ccc(S(=O)(=O)N(CC(C)C)C[C@@H](O)[C@H](Cc2ccccc2)NC(=O)Cc2ccc(OC)c(O)c2)cn1 | 13 | –
7 | COc1cccc(CC(=O)N[C@@H](Cc2ccccc2)[C@H](O)CN(CC(C)C)S(=O)(=O)c2ccc(N)cc2)c1 | 35.1 | –
8 | CC(C)CN(C[C@@H](O)[C@H](Cc1ccccc1)NC(=O)Cc1ccc(O)c(O)c1)S(=O)(=O)c1ccc(N)cc1 | 9.46 | –
9 | COc1ccc(S(=O)(=O)N(CC(C)C)C[C@@H](O)[C@H](Cc2ccccc2)NC(=O)Cc2ccc(O)cc2)cc1 | 2.22 | –
10 | COc1ccc(CC(=O)N[C@@H](Cc2ccccc2)[C@H](O)CN(CC(C)C)S(=O)(=O)c2ccc(OC)cc2)cc1 | 21 | –
11 | CC(C)CN(C[C@@H](O)[C@H](Cc1ccccc1)NC(=O)Cc1ccc(O)cc1)S(=O)(=O)c1ccc(N)cc1 | 32 | –
12 | COc1ccc(S(=O)(=O)N(CC(C)C)C[C@@H](O)[C@H](Cc2ccccc2)NC(=O)Cc2ccc(O)c(O)c2)cn1 | 2.87 | –
13 | COc1ccc(CC(=O)N[C@@H](Cc2ccccc2)[C@H](O)CN(CC(C)C)S(=O)(=O)c2ccc(SC)cc2)cc1O | 9.28 | –
14 | COc1ccc(S(=O)(=O)N(CC(C)C)C[C@@H](O)[C@H](Cc2ccccc2)NC(=O)Cc2ccc(O)c(OC)c2)cc1 | 50 | –
15 | CSc1ccc(S(=O)(=O)N(CC(C)C)C[C@@H](O)[C@H](Cc2ccccc2)NC(=O)Cc2cccc(O)c2)cc1 | 2.18 | EC50 [2]: 940 nM; EC50 [3]: 2360 nM; Ratio EC50 [4]: 2.51
16 | COc1ccc(S(=O)(=O)N(CC(C)C)C[C@@H](O)[C@H](Cc2ccccc2)NC(=O)Cc2ccc(OC)c(OC)c2)cc1 | 85 | –

Row | Structure (SMILES) | IC50 [1] [nM] | further results
17 | CSc1ccc(S(=O)(=O)N(CC(C)C)C[C@@H](O)[C@H](Cc2ccccc2)NC(=O)Cc2ccc(O)cc2)cc1 | 4.2 | –
18 | COc1cccc(CC(=O)N[C@@H](Cc2ccccc2)[C@H](O)CN(CC(C)C)S(=O)(=O)c2ccc(OC)nc2)c1 | 12.5 | –
19 | COc1cccc(CC(=O)N[C@@H](Cc2ccccc2)[C@H](O)CN(CC(C)C)S(=O)(=O)c2ccc(SC)cc2)c1 | 30.4 | –
20 | CC(C)CN(C[C@@H](O)[C@H](Cc1ccccc1)NC(=O)Cc1cccc(O)c1)S(=O)(=O)c1ccc(N)cc1 | 5.55 | –
21 | COc1ccc(S(=O)(=O)N(CC(C)C)C[C@@H](O)[C@H](Cc2ccccc2)NC(=O)Cc2ccc(O)cc2)cn1 | 7.26 | –
22 | COc1ccc(CC(=O)N[C@@H](Cc2ccccc2)[C@H](O)CN(CC(C)C)S(=O)(=O)c2ccc(N)cc2)cc1OC | 1020 | –
23 | COc1ccc(S(=O)(=O)N(CC(C)C)C[C@@H](O)[C@H](Cc2ccccc2)NC(=O)Cc2ccc(OC)c(O)c2)cc1 | 3.97 | –
24 | COc1ccc(CC(=O)N[C@@H](Cc2ccccc2)[C@H](O)CN(CC(C)C)S(=O)(=O)c2ccc(N)cc2)cc1O | 27.5 | –
25 | COc1ccc(S(=O)(=O)N(CC(C)C)C[C@@H](O)[C@H](Cc2ccccc2)NC(=O)Cc2ccc(OC)c(OC)c2)cn1 | 176 | –
26 | COc1ccc(S(=O)(=O)N(CC(C)C)C[C@@H](O)[C@H](Cc2ccccc2)NC(=O)Cc2cccc(O)c2)cc1 | 0.87 | EC50 [2]: 1050 nM; EC50 [3]: 8850 nM; Ratio EC50 [4]: 8.43
27 | COc1ccc(S(=O)(=O)N(CC(C)C)C[C@@H](O)[C@H](Cc2ccccc2)NC(=O)Cc2cccc(O)c2)cn1 | 1.2 | EC50 [2]: 950 nM; EC50 [3]: 5020 nM; Ratio EC50 [4]: 5.26
28 | COc1ccc(S(=O)(=O)N(CC(C)C)C[C@@H](O)[C@H](Cc2ccccc2)NC(=O)Cc2ccc(O)c(OC)c2)cn1 | 170 | –
29 | COc1cc(CC(=O)N[C@@H](Cc2ccccc2)[C@H](O)CN(CC(C)C)S(=O)(=O)c2ccc(N)cc2)ccc1O | 379 | –
30 | COc1ccc(CC(=O)N[C@@H](Cc2ccccc2)[C@H](O)CN(CC(C)C)S(=O)(=O)c2ccc(OC)nc2)cc1 | 51.8 | –
31 | COc1cc(CC(=O)N[C@@H](Cc2ccccc2)[C@H](O)CN(CC(C)C)S(=O)(=O)c2ccc(SC)cc2)ccc1O | 116 | –
32 | COc1ccc(CC(=O)N[C@@H](Cc2ccccc2)[C@H](O)CN(CC(C)C)S(=O)(=O)c2ccc(SC)cc2)cc1 | 85.8 | –
